PubChem BioAssay (NCI)
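Where inhibition never reached the appropriate level, the endpoint shown equals the highest concentration tested. Otherwise, values were interpolated linearly from a five-concentration, 48-hour dose response in 96-well plates. TGI is the concentration that stops growth completely.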

Each compound was assayed on SR leukemia (assay: NCI tumour cell line growth inhibition, 48 h).

SMILES | TGI
O=C1c2ccsc2C(=O)c2sc(CO)cc21 | > 10.8 µM
O=C(c1cccs1)N1CCc2ccccc2C1 | > 100 µM
CC1S/C(=N\N=C2/C(=O)Nc3ccc(Br)cc32)N(C2CCCCC2)C1=O (stereo not drawn) | 39.4 µM
CN(C)CC1CCCC(CN(C)C)C1OC(=O)c1ccccc1 (stereo not drawn) | > 100 µM
CCCCC1Cc2ccccc2-c2nc3ccccc3n21 (stereo not drawn) | 24.3 µM
CCC(=O)Oc1ccc2c(c1)c(=O)c1c(NCCCN(C)C)ccc3nnn2c31 | 6.01 µM
Cc1ccc(S(=O)(=O)N/N=C2/CCCOC2)cc1 | > 100 µM
C[Si](C)(C)OC1CC(=O)OC1n1cc(F)c(=O)[nH]c1=O (stereo not drawn) | 9.38 µM
CCOC(=O)C1C(=O)CC1(C)C (stereo not drawn) | > 10 µM

These compounds were tested on SW-620 colon (assay: NCI tumour cell line growth inhibition, 48 h).

SMILES | TGI
O=c1cc(-c2ccc(Oc3ccccc3)cc2)[nH]c2cc3c(cc12)OCO3 | > 100 µM
O=C(N/N=C\C=C\c1ccc([N+](=O)[O-])o1)C(=O)N/N=C\C=C\c1ccc([N+](=O)[O-])o1 | 58.8 µM
CC(=O)O[C@H]1C(=O)[C@@]2(C)C(C(OC(=O)c3ccccc3)[C@]3(O)CC(OC(=O)C(O)C(NC(=O)c4ccc(C(F)(F)F)cc4)c4ccccc4)C(C)=C1C3(C)C)[C@]1(OC(C)=O)CO[C@@H]1C[C@@H]2O (stereo partly drawn) | 0.763 µM
COC(=O)CC1N=C(NC#N)N(CCc2c[nH]c3ccccc23)C1=O (stereo not drawn) | > 100 µM
Nc1nc(-c2ccccc2)cc(-c2ccc(OCc3ccccc3)cc2O)n1 | > 100 µM
CCOC(=O)c1cn2c(n1)sc1cc(Cl)ccc12 | > 100 µM
Cn1c(O)c(C(=O)NC2CCCCC2)c(=O)n(C)c1=S | 25 µM
CCN1CCN(c2nc3ccccc3c3c2CCOc2ccccc2-3)CC1 | > 67.5 µM
Nc1nc([O-])c2c(n1)[n+](C1OC(CO)C(O)C1O)cn2CCO (stereo not drawn) | > 100 µM
O=C(NCP(=O)(c1ccccc1)c1ccccc1)OCc1ccccc1 | > 100 µM
CCOC(C)O[C@H]1C(=O)OCC1(C)C (stereo partly drawn) | > 100 µM
CC(CC[C@@]1(C)C(=O)CCC2O[C@]21C)[C@H]1C[C@@H](c2ccoc2)OC1=O (stereo partly drawn) | 91.8 µM
O=Cc1ccccc1COC(=O)c1cc(C(=O)OCc2ccccc2C=O)c(C(=O)OCc2ccccc2C=O)cc1C(=O)OCc1ccccc1C=O | > 100 µM
CCOC1=NC(O)c2cccn2-c2sccc21 (stereo not drawn) | > 100 µM
COC(=O)c1cc2c(cc1CC(Cc1ccc3c(c1)CCCC3)C(=O)OC)CCCC2 (stereo not drawn) | > 100 µM
O=C1c2ccsc2C(=O)c2sc(CO)cc21 | 0.164 µM
O=C(c1cccs1)N1CCc2ccccc2C1 | > 100 µM
CC1S/C(=N\N=C2/C(=O)Nc3ccc(Br)cc32)N(C2CCCCC2)C1=O (stereo not drawn) | 46.3 µM
CN(C)CC1CCCC(CN(C)C)C1OC(=O)c1ccccc1 (stereo not drawn) | > 100 µM
CCCCC1Cc2ccccc2-c2nc3ccccc3n21 (stereo not drawn) | 33.9 µM
Cc1cc(N(CCC#N)CCC#N)ccc1/C=C(\NC(=O)/C=C/c1ccccc1)C(N)=O | > 100 µM
CCC(=O)Oc1ccc2c(c1)c(=O)c1c(NCCCN(C)C)ccc3nnn2c31 | 13.5 µM
Cc1ccc(S(=O)(=O)N/N=C2/CCCOC2)cc1 | > 100 µM
C[Si](C)(C)OC1CC(=O)OC1n1cc(F)c(=O)[nH]c1=O (stereo not drawn) | > 56 µM
CCOC(=O)C1C(=O)CC1(C)C (stereo not drawn) | > 10 µM

What follows are compounds tested on UO-31 renal (assay: NCI tumour cell line growth inhibition, 48 h).

SMILES | TGI
O=c1cc(-c2ccc(Oc3ccccc3)cc2)[nH]c2cc3c(cc12)OCO3 | > 100 µM
CCOC(=O)CC(C)C1(C(=O)OCC)CCCCC1=O (stereo not drawn) | > 100 µM
O=C(N/N=C\C=C\c1ccc([N+](=O)[O-])o1)C(=O)N/N=C\C=C\c1ccc([N+](=O)[O-])o1 | > 100 µM
COC(=O)CC1N=C(NC#N)N(CCc2c[nH]c3ccccc23)C1=O (stereo not drawn) | > 100 µM
Nc1nc(-c2ccccc2)cc(-c2ccc(OCc3ccccc3)cc2O)n1 | > 100 µM
CCOC(=O)c1cn2c(n1)sc1cc(Cl)ccc12 | > 100 µM
CCN1CCN(c2nc3ccccc3c3c2CCOc2ccccc2-3)CC1 | > 66 µM
Nc1nc([O-])c2c(n1)[n+](C1OC(CO)C(O)C1O)cn2CCO (stereo not drawn) | > 100 µM
O=C(NCP(=O)(c1ccccc1)c1ccccc1)OCc1ccccc1 | > 100 µM
CCOC(C)O[C@H]1C(=O)OCC1(C)C (stereo partly drawn) | > 100 µM
CC(CC[C@@]1(C)C(=O)CCC2O[C@]21C)[C@H]1C[C@@H](c2ccoc2)OC1=O (stereo partly drawn) | 35.2 µM
O=Cc1ccccc1COC(=O)c1cc(C(=O)OCc2ccccc2C=O)c(C(=O)OCc2ccccc2C=O)cc1C(=O)OCc1ccccc1C=O | > 100 µM
CCOC1=NC(O)c2cccn2-c2sccc21 (stereo not drawn) | > 100 µM
COC(=O)c1cc2c(cc1CC(Cc1ccc3c(c1)CCCC3)C(=O)OC)CCCC2 (stereo not drawn) | > 100 µM
O=C1c2ccsc2C(=O)c2sc(CO)cc21 | 0.317 µM
O=C(c1cccs1)N1CCc2ccccc2C1 | > 100 µM
CC1S/C(=N\N=C2/C(=O)Nc3ccc(Br)cc32)N(C2CCCCC2)C1=O (stereo not drawn) | 3.08 µM
CN(C)CC1CCCC(CN(C)C)C1OC(=O)c1ccccc1 (stereo not drawn) | > 100 µM
CCCCC1Cc2ccccc2-c2nc3ccccc3n21 (stereo not drawn) | 36.1 µM
Cc1cc(N(CCC#N)CCC#N)ccc1/C=C(\NC(=O)/C=C/c1ccccc1)C(N)=O | > 100 µM
CCC(=O)Oc1ccc2c(c1)c(=O)c1c(NCCCN(C)C)ccc3nnn2c31 | 5.3 µM
Cc1ccc(S(=O)(=O)N/N=C2/CCCOC2)cc1 | > 100 µM
C[Si](C)(C)OC1CC(=O)OC1n1cc(F)c(=O)[nH]c1=O (stereo not drawn) | > 100 µM
CCOC(=O)C1C(=O)CC1(C)C (stereo not drawn) | > 10 µM
